“Also recorded” adds a separate entry of the source.
Legend:
HT29 tumors [1] = test: H3-P mitotic index assay in HT29 tumors; type: in vivo, mice; conditions: for mitotic index (H3-P): 100 mg/kg gemcitabine i.p.
Procedure: Chem. 271:13197-201. 1996; Goto et al., J Biol Chem. 274:25543-9, 1999). The assay protocol was as follows. Tumors from rodents treated or untreated with Chk1 activator (in the present study, chemotherapy agent) and/or Chk1 inhibitor, were excised and paraffin embedded. The tumors are cut into 6 micron thick slices and mounted on glass slides. […] The slides are then heated to 95° C. in 10 mM sodium citrate for 10 minutes followed by a 20 minute cooling step. The slides are blocked for 30 minutes with Block buffer (20% normal human serum and 2% bovine serum albumin in phosphate buffered saline containing 0.05% Triton X-100 (PBST)). The anti-phospho histone H3 antibody (Upstate Biotech, Cat. #06-570) is diluted 1:200 in the Block buffer and incubated with the slides for one hour. The slides are washed 3 times 5 minutes in PBST. The secondary antibody, donkey anti-rabbit rhodamine (Jackson, cat #711-295-152) was added for 30 minutes. The slides were then washed twice in PBST and […] of […] DAPI (Sigma) in PBS is added and allowed to stain for 30 minutes. The slides were then washed two more times in PBST and mounted with Vectashield (Vector, cat # H-1400). Slides were viewed using fluorescence microscopy. The percentage of cells stained with H3-P antibody relative to total (DAPI stained) cells were quantified using Metamorph software (Universal Imaging Corporation, Version 4.6). […] Tumors from these animals were resected, paraffin embedded and stained with an antibody to H3-P followed by a counter-stained with DAPI. The percentage of mitotic cells (positive to H3-P) was quantified at each time point. […] To determine whether checkpoint abrogation by selective Chk1 inhibitor was dose-dependent, HT29 tumor-bearing mice were pretreated with gemcitabine and 32 hours later dosed with increasing doses of selective Chk1 inhibitor. After 18 hours, tumors were harvested and stained for H3-P as described above. […] The response is saturated at 400 mg/kg.

Chk1 = Chk1 serine 296 phosphorylation, Western blot in HT29 cells; type: cell-based, human; conditions: HT29 cells, 20 μM gemcitabine for two hours, 22 additional hours
Procedure: Phosphorylation at this site is not inhibited by Wortinannin, which inhibits Atm and Atr. Therefore the phosphorylation of serine 296 is distinct from phosphorylation at serines 317 and 345 described in Example 12. […] Therefore, this approach may be used to monitor Chk1 activity in tumors in response to Chk1 activators. Further, this approach may be used to measure inhibition of Chk1 activation by Chk1 inhibitors.
Thus, HT 29 cells were treated with 20 μM gemcitabine for two hours. The gemcitabine was washed out of the cell growth media and cells were incubated for 22 additional hours. Protein lysates were prepared and separated by an SDS-polyacrylamide gel electrophoresis. Proteins were transferred to polyvinylidene fluoride (PVDF) membranes and probed with antisera (Cell Signalling) specific for phosphorlyated serine 296 (Cell Signalling). […] Further, HT29 cells treated with selective Chk1 inhibitors for 15 minutes show no serine 296 phosphorylation.

H460 tumors = test: H3-P staining in H460 tumors after gemcitabine; type: in vivo, rodent
Procedure: Chem. 271:13197-201. 1996; Goto et al., J Biol Chem. 274:25543-9, 1999). The assay protocol was as follows. Tumors from rodents treated or untreated with Chk1 activator (in the present study, chemotherapy agent) and/or Chk1 inhibitor, were excised and paraffin embedded. The tumors are cut into 6 micron thick slices and mounted on glass slides. […] The slides are then heated to 95° C. in 10 mM sodium citrate for 10 minutes followed by a 20 minute cooling step. The slides are blocked for 30 minutes with Block buffer (20% normal human serum and 2% bovine serum albumin in phosphate buffered saline containing 0.05% Triton X-100 (PBST)). The anti-phospho histone H3 antibody (Upstate Biotech, Cat. #06-570) is diluted 1:200 in the Block buffer and incubated with the slides for one hour. The slides are washed 3 times 5 minutes in PBST. The secondary antibody, donkey anti-rabbit rhodamine (Jackson, cat #711-295-152) was added for 30 minutes. The slides were then washed twice in PBST and […] of […] DAPI (Sigma) in PBS is added and allowed to stain for 30 minutes. The slides were then washed two more times in PBST and mounted with Vectashield (Vector, cat # H-1400). Slides were viewed using fluorescence microscopy. The percentage of cells stained with H3-P antibody relative to total (DAPI stained) cells were quantified using Metamorph software (Universal Imaging Corporation, Version 4.6). […]

HT29 tumors [2] = test: Rb-Pser795 S phase marker staining of HT29 tumors; type: in vivo, mice; conditions: 100 mg/kg gemcitabine i.p., 1 to 72 hr
Text: To confirm that low H3-P staining corresponds to S phase arrest, tumors were also stained with an S phase marker, phosphorylated Rb-Pser795. Tumor slices taken in the experiment above were stained with the Rb-Pser795 antibody (Cell Signaling Cat# 9301S) and the number of positive staining cells quantified.

Structure (SMILES): Nc1ccn([C@@H]2O[C@H](CO)[C@@H](O)C2(F)F)c(=O)n1 [gemcitabine]
- mitotic cells (H3-P positive) (HT29 tumors [1]; 100 mg/kg gemcitabine for 48 hours alone): approximately 4%
- mitotic index (H3-P) (HT29 tumors [1]; 1-6 hr time points): approximately 3
- mitotic index (H3-P) (HT29 tumors [1]; between 12 and 24 hr after administration): approximately 1.5
- time of lowest H3-P staining (HT29 tumors [1]; HT29, treated with gemcitabine): 48 h
- time of optimal S phase arrest post-gemcitabine treatment (HT29 tumors [1]; HT29 tumors, from H3-P and Rb-Pser795 staining): 24 to 48 h
- phosphorylation of Chk1 serine 296 (Chk1): stimulated; also recorded: results in the phosphorylation of serine 296
- time at which cells exited S phase arrest (H460 tumors; H460 cells, after gemcitabine): 48 h
- time of lowest H3-P staining (H460 tumors; H460 tumors treated with gemcitabine): 12 h
- Rb-P staining cells (HT29 tumors [2]): more Rb-P staining cells at, 24, 48 and 72 hours than at earlier timepoints
